Reference: patent US20080051454A1, “Compositions and methods for transient receptor potential vanilloid (TRPV) channel mediated treatments” (The Board of Trustees Operating Michigan State University, priority 2006, published 2008)

What was measured:
[1] = system: Wistar rats (Con-NS, Con-HS, Cap-NS, Cap-HS); assay: Natriuretic, diuretic and depressor effects of i.v. diuretics in control and capsaicin-pretreated rats on normal or high sodium diet; format: in vivo, rat; conditions: intravenous
Experimental: (a) Urine flow rate. (b) Urine sodium excretion. […] (c) Mean arterial pressure. […] Vehicle; trichlormethiazide.
(a) Urine flow rate. (b) Urine sodium excretion. […] (c) Mean arterial pressure.
(a) Urine flow rate. (b) Urine sodium excretion. […] (c) Mean arterial pressure. […] Vehicle; amiloride.
Design and methods Neonatal Wistar rats were treated with capsaicin or vehicle. Seven-week-old male rats were treated for 2 weeks with: vehicle plus a normal (Con-NS) or high (Con-HS) sodium diet, and capsaicin pretreatment plus a normal (Cap-NS) or high (Cap-HS) sodium diet. Mean arterial pressure (MAP), renal excretory function, and protein expression determined by Western blot were performed.

[2] = system: rats; assay: Mean arterial pressure before and after left renal pelvis perfusion (LRPP) treatments; format: in vivo, rat; conditions: for Mean arterial pressure, Treatment: after treatment; for Mean arterial pressure, Baseline: before treatment
From the text: Urine flow rate (V, FIG. 3a) and urinary sodium excretion (UNaV, FIG. 3b) of the contralateral kidney are shown (n=5-6 in each group). +vs baseline and all other groups, +p<0.05.

[3] = system: WT hearts; assay: Preconditioning (PC) protection against I/R in Langendorff hearts with receptor antagonists, wild type; design: species or system mouse; conditions: for effect on PC-induced cardiac protection (LVEDP, LVDP, CF, +dP/dt, −dP/dt) in WT hearts: CAPZ 10^−7 M, CGRP8-37 10^−6 M, RP67580 10^−7 M
Experimental: (§1) Male TRPV1 gene knockout (TRPV1-/-) strain B6.129S[…][…]^tm1Jul and matching control wild type (WT) strain C57BL/6J mice were used (Jackson Laboratory, Bar Harbor, Me.). Mice were heparinized (500 U/kg i.p.) and anesthetized with pentobarbital sodium (50 mg/kg i.p.). […] The distal end of the catheter was connected to a […] Performance Analyzer via a pressure transducer. Coronary flow (CF) was continuously measured using an ultrasonic flow probe placed in the aortic perfusion line. Hearts were paced at 400 bpm except during ischemic PC and sustained global ischemia to avoid inducing excessive ventricular tachyarrhythmia during reperfusion, and pacing was reinitiated 2 minutes after reperfusion. Left ventricular developed pressure (LVDP, peak systolic minuses LVEDP) and LV peak positive […]) during isovolumic contraction were used as indices of LV systolic function; LVEDP and the peak negative […] used as indices of LV diastolic function. […] Non-preconditioned hearts were time-matched perfused with the same duration as that of preconditioned hearts. Group 1: Controls. As normal controls (nonischemic), WT and TRPV1-/- hearts were perfused for 130 minutes. For I/R controls, WT and TRPV1-/- hearts were first perfused with Krebs-Henseleit buffer for 55 min (time-matched perfusion of the equilibration period plus the PC period), and subsequently subjected to 30 minutes of no-flow normothermic global ischemia followed by 40-minutes of reperfusion. Group 2: PC. […] The hearts were subjected to 30 minutes of no-flow normothermic global ischemia followed by 40-minutes of reperfusion as that of I/R control groups. Group 3: PC plus capsazepine (CAPZ). […] Two additional concentrations of CAPZ, 10^-6M and 10^-8 M, were used in WT hearts. An additional drug control was added. After a 20-minute equilibration period, WT hearts were perfused with CAPZ (10^-7 M) for 10 minutes without PC, followed by perfusion with Krebs-Henseleit buffer for 25 minutes (time-matched perfusion of the PC period) and then subjected to I/R. Group 4: […] Two additional concentrations of CGRP8-37, 10^-5 M and 10^-7 M, were used in WT hearts. An additional drug control of CGRP8-37 was added as that of the CAPZ control group. Group 5: PC plus RP67580. To determine the role of endogenous SP during PC, hearts from WT and TRPV1-/-mice were perfused as that of CAPZ with RP67580 (10^-7 M), a selective neurokinin-1 (NK1) receptor antagonist. Two additional concentrations of RP67580, 10^-6 M and 10^-8 M, were used in WT hearts. An additional drug control of RP67580 was added as that of the CAPZ control group.

[4] = system: TRPV1−/− hearts; assay: Preconditioning (PC) protection against I/R in Langendorff hearts with receptor antagonists, TRPV1-null; design: species or system mouse; conditions: CAPZ 10^−7 M, CGRP8-37 10^−6 M, RP67580 10^−7 M
Experimental: as §1, with “Two additional concentrations of CGRP8-37, 10^-5 M and 10^-7 M, were used in WT hearts. An additional drug control of CGRP8-37 was added as that of the CAPZ control group. Group 5: PC plus RP67580. To determine the role of endogenous SP during PC, hearts from WT and TRPV1-/-mice were perfused as that of CAPZ with RP67580 (10^-7 M), a selective neurokinin-1 (NK1) receptor antagonist. Two additional concentrations of RP67580, 10^-6 M and 10^-8 M, were used in WT hearts. An additional drug control of RP67580 was added as that of the CAPZ control group.” left out

[5] = system: WT hearts; assay: Lactate dehydrogenase (LDH) release during I/R; design: species or system mouse
Experimental: Lactate dehydrogenase (LDH) release: In addition to the measurement of cardiac function, cardiac injury was assessed by measuring LDH release. Perfusion effluent was collected during the first 10 minutes to 20 minutes of I/R and stored at […] until analyzed. Total LDH levels were determined with the use of a CytoTox 96 assay (Promega). The data were expressed as absorbance units released per milliliter per minute per gram of heart wet tissues (Turnbull et al., Am J Physiol Heart Circ Physiol 290: […]-9, 2006; herein incorporated by reference).

[6] = system: hearts of WT mice; assay: Langendorff perfused heart, ischemia and reperfusion (I/R) with OLDA, wild type; design: species or system mouse; conditions: antagonist 1×10^−6 M
Experimental: The following measurements were made on the two types of heart tissue: left ventricular end-diastolic pressure (LVEDP), left ventricular developed pressure (LVDP), coronary flow (CF), and left ventricular (LV) peak positive rate of pressure change/rate of time change (+dP/dt) were evaluated after I/R.

[7] = system: male Wistar rats; assay: Depressor effect of 20-HETE analog DSR given IV, with or without antagonists; format: in vivo, rat; conditions: DSR 1 mg/kg with CAPZ 3 mg/kg, RP67580 4 mg/kg or CGRP 8-37 3 mg/kg
[8] = system: Wistar rats fed a normal-salt (NS) or high-salt (HS) diet for 10 days; assay: MAP and HR responses to i.v. bolus NADA with or without antagonists in conscious rats; format: in vivo, rat; conditions: for prolonged depressor effect of NADA (decrease in MAP) after antagonist: NADA 4 mg/kg after CAPZ 3 mg/kg, CGRP8-37 infusion or SR141716A 3 mg/kg
From the text: In brief: Wistar rats were fed a normal (NS, 0.4%) or high (HS, 4%) sodium diet for 10 days, then artery and vein were cannulated for measurement of mean arterial pressure (MAP) or for injection of drugs and collection of plasma.
Animal Preparation: Male Wistar rats (7 weeks old, Charles River Laboratory, Wilmington, Mass.) were housed in the animal facility for 1 week before the experiment. Rats were grouped randomly and pair-fed a NS (0.4% of Na^+ by weight) or HS (4% of Na^+ by weight) diet for 10 days. The rat chow was purchased from Harlan Teklad Diets (Madison, Wis.). Drinking water was available ad libitum throughout the experiment. All protocols were in accordance with the National Institutes of Health Guidelines for the Care and Use of Laboratory Animals.
(§2) Surgical Preparation Rats were anesthetized with ketamine and xylazine (80 and 4 mg/kg intraperitoneally, respectively) for cannulation or with urethane (1.5 g/kg intraperitoneally) for capsaicin administration. The left jugular vein, carotid and femoral artery were cannulated under anesthesia for injection of drugs or monitoring of mean arterial pressure (MAP) and heart rate (HR).
Three hours after surgery, baseline MAP and its response to the above-mentioned drugs were obtained with the rats fully awake and unrestrained [Wang et al., Am J Physiol 2004; 287:H1868-H[874]. NADA was injected in increasing doses (1, 4, and 10 mg/kg intravenous bolus) in 3 subgroups of rats (each group for each dose). To determine the role of TRPV1 and CB 1 receptor in NADA-induced hypotension, NADA (4 mg/kg) was injected 10 minutes or 20 minutes after intravenous injection of CAPZ (3 mg/kg) or SR141716A (3 mg/kg), respectively.
To examine the effect of CGRP8-37 on NADA-induced hypotension, CGRP8-37 was intravenously administered at the rate of 1 mg/kg/min for 2 minutes followed by injection at the rate of 0.5 mg/kg/min for 15 minutes. NADA (4 mg/kg) was injected 1 minute after CGRPs-37 administration. The effectiveness of the dose and time frame for CGRP8-37 injection was verified by blockade of the hypotensive response to capsaicin (30 μg/kg) (n=5).

[9] = system: Wistar rats fed a NS or HS diet for 10 days; assay: MAP responses to i.v. capsaicin with or without CAPZ in urethane-anesthetized rats; format: in vivo, rat; conditions: CGRP8-37 infusion; capsaicin 30 μg/kg
Experimental: as §2
Each dose of injection was separated by a 30-minute interval. To determine the specificity of capsaicin, CAPZ (3 mg/kg) was administered 10 minutes before capsaicin injection in a separate group.

[10] = system: renal cortex and medulla; assay: Neonatal capsaicin treatment plus NS or HS diet: renal superoxide, SOD and NAD(P)H oxidase subunits; design: species or system rat
Experimental: Enhanced oxidative stress in kidneys of salt-sensitive hypertension: role of sensory nerves (Am J Physiol Heart Circ Physiol 291: H3136-H3143, 2006). To determine the mechanism(s) underlying enhanced oxidative stress in kidneys of salt-sensitive hypertension, neonatal Wistar rats were given vehicle or capsaicin (CAP, 50 mg/kg sc) on the first and second days of life. After being weaned, male rats were assigned into four groups and treated for 2 wk with the following: vehicle+a normal sodium diet (NS, 0.4%, CON-NS), vehicle+a high-sodium diet (HS, 4%, CON-HS), CAP+NS (CAP−NS), and CAP+HS (CAP−HS). […] Plasma and urinary 8-iso-prostaglandin F2alpha levels increased by approximately 40% in CON-HS and CAP−HS rats compared with their respective controls fed a NS diet (P≦0.05), and these parameters were higher in CAP−HS compared with CON-HS rats. Superoxide (O2—) levels in the renal cortex and medulla increased by approximately 45% in CAP−HS compared with CON-HS, CON-NS, and CAP−NS rats (P≦0.05). […]

[11] = system: WT and TRPV1−/− hearts; assay: OLDA-induced CGRP and SP release from hearts (radioimmunoassay); design: species or system mouse

NS(=O)(=O)c1cc(C(=O)O)c(NCc2ccco2)cc1Cl [furosemide]
effect on MAP (words) [1]: decreased MAP in Cap-HS but not in Cap-NS, Con-NS, and Con-HS rats
time of peak urine flow rate (UFR) after injection [1]: 5 min
effect on MAP (words) ([1]; listed as Furosemide): decreased MAP in Cap-HS rats only

[Cl-].[K+] [150 KCl, KCl]
Mean arterial pressure, Treatment [2]: 125 ± 4 mmHg
Mean arterial pressure, Baseline [2]: 123 ± 6 mmHg

COc1ccccc1CC(=N)N1C[C@@H]2C(=O)CCC(c3ccccc3)(c3ccccc3)[C@@H]2C1 [RP67580]
effect on cardiac function in WT hearts without I/R [3]: no effect on cardiac function
effect on PC-induced cardiac protection (LVEDP, LVDP, CF, +dP/dt, −dP/dt) in WT hearts [3]: abolished
effect on CF in WT hearts ([3]; PC plus I/R): no effect on CF
effect on these parameters in TRPV1−/− hearts [4]: no effect
effect on PC protection assessed by LDH levels after I/R in WT hearts [5]: abolished
effect on protective effect of OLDA in WT hearts [6]: abolished
DSR induced-depressor effect after antagonist [7]: 9.4±2.3 mmHg

CGRP8-37: selective calcitonin gene-related peptide (CGRP) receptor antagonist peptide
effect on cardiac function in WT hearts without I/R [3]: no effect on cardiac function
effect on PC-induced cardiac protection (LVEDP, LVDP, CF, +dP/dt, −dP/dt) in WT hearts [3]: blocked PC-induced cardioprotective effects
effect on these parameters in TRPV1−/− hearts [4]: no effect
effect of antagonist on NADA-induced depressor effect ([8]; NADA 4 mg/kg): abolished
prolonged depressor effect of NADA (decrease in MAP) after antagonist ([8]; HS diet): 6±3 mmHg
prolonged depressor effect of NADA (decrease in MAP) after antagonist ([8]; NS diet): 5±2 mmHg
effect on hypotensive response to capsaicin [9]: blockade
effect on PC protection assessed by LDH levels after I/R in WT hearts [5]: abolished
effect on protective effect of OLDA in WT hearts [6]: abolished
DSR induced-depressor effect after antagonist [7]: 9.3±3.3 mmHg

[Cl-].[Na+] [600 mM NaCl, NaCl]
Mean arterial pressure, Treatment [2]: 117 ± 2 mmHg
Mean arterial pressure, Baseline [2]: 115 ± 2 mmHg

OC[C@@H](O)[C@@H](O)[C@H](O)[C@H](O)CO [1200 mOsm Mannitol, Mannitol]
Mean arterial pressure, Treatment [2]: 121 ± 7 mmHg
Mean arterial pressure, Baseline [2]: 121 ± 6 mmHg

COc1cc(C(C)=O)ccc1O [apocynin]
O2— production in renal cortex after ex vivo incubation ([10]; apocynin 0.1 mM, CAP−HS rats): 2.83 0.38 nmol_min—1_mg dry wt—1
O2— production in renal medulla after ex vivo incubation ([10]; apocynin 0.1 mM, CAP−HS rats): 1.73 0.23 nmol_min—1_mg dry wt—1
effect on O2— production ([10]; apocynin, CON-HS, CON-NS and CAP−NS rats): no significant effects
effect on enhanced O2— levels in cortex and medulla of CAP−HS rats ([10]; preincubation of renal tissues with apocynin): prevented

COc1ccc2c(c[n+](C)c3c4cc5c(cc4ccc23)OCO5)c1OC [chelerythrine]
effect on OLDA-increased CGRP and SP release in WT hearts [11]: blocked

NS(=O)(=O)c1cc2c(cc1Cl)NC(C(Cl)Cl)NS2(=O)=O (centres unmarked) [trichlormethiazide]
effect on MAP (words) [1]: decreased MAP in Cap-HS but not in Cap-NS, Con-NS, and Con-HS rats
time of peak urine flow rate (UFR) after injection [1]: 10 min
urine flow / urine sodium excretion (words) [1]: significantly increased
effect on MAP (words) ([1]; listed as Trichlormethiazide): decreased MAP in Cap-HS rats only
urine flow / urine sodium excretion (words) ([1]; listed as Trichlormethiazide): increased

N=C(N)NC(=O)c1nc(Cl)c(N)nc1N [amiloride]
effect on MAP (words) [1]: no effect on MAP in any group
time of peak urine flow rate (UFR) after injection [1]: 10 min
urine flow / urine sodium excretion (words) [1]: significantly increased
effect on MAP (words) ([1]; listed as Amiloride): no effect
urine flow / urine sodium excretion (words) ([1]; listed as Amiloride): no effect
